Reference: US20260008775A1, “AZOLE MODULATORS OF CHOLESTEROL BIOSYNTHESIS AND THEIR USE FOR PROMOTING REMYELINATION” (GENENTECH, INC., priority 2022, published 2026)

Experiments:
[1] = molecular target: human emopamil binding protein and human 7-dehydrocholesterol reductase (hEBP-DHCR7) (Homo sapiens (Human), UniProt Q15125); test: hEBP-DHCR7 radioligand binding assay (filter binding, membranes of co-expressing HEK293 cells); details: competition with [3H] radioligand, 8 doses 0.06 to 5000 nM, Ki calculated from IC50
Chain of human emopamil binding protein and human 7-dehydrocholesterol reductase (hEBP-DHCR7) (Q15125 whole entry): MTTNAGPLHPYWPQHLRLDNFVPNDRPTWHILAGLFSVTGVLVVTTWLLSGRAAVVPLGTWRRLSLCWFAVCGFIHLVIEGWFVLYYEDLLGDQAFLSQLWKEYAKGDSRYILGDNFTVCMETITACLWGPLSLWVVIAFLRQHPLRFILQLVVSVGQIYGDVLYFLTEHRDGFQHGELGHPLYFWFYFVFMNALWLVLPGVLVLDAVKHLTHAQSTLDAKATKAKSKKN
Procedure, shortened: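 Compound, either single dose 1 μM or eight 5-fold dilutions from 0.06 to 5000 nM, competed with a [3H]-labelled ligand added at 25 nM for binding to co-expressing HEK293 membranes. IC50 came from nonlinear regression, with full block and DMSO as controls, then Cheng–Prusoff conversion to Ki.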

EpiSC-derived OPCs = test: In vitro phenotypic screening of OPCs, MBP high-content imaging (percentage of oligodendrocytes); type: cell-based, mouse; details: Mus musculus, 72 h, 3 days, MBP stain, dose-response 0.5 nM to 1000 nM; read-out: OPC EC50
Procedure, shortened: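 EC50 was fitted by Hill equation to the MBP-positive oligodendrocyte percentage from imaging of fixed, MBP- and DAPI-stained cells. Treatment lasted 3 days at 37 °C, final doses 0.5–1000 nM over 8 points, in growth factor-free N2B27. Cells were EpiSC-derived OPCs, tested in at least two independent platings.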

[2] = test system: zymostenol accumulation (EBP) in EpiSC-derived OPCs; test: GC/MS-based sterol profiling, zymostenol accumulation in EpiSC-derived OPCs; type: cell-based, mouse; details: Mus musculus, 24 h, EpiSC-derived OPCs, 24 hr, 8 doses from 0.15 nM to 333 nM; read-out: Mouse Zymostenol GCMS EC50
Procedure, shortened: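 Zymostenol level is expressed relative to that after 24 h with 100 nM positive-control reference, measured by full-scan GC/MS (m/z 458) with cholesterol-d7 internal standard after BSTFA derivatisation. Cells were EpiSC-derived OPCs, 100,000/well in N2B27 without growth factors, treated 24 h, from two or more independent platings.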

Ki [1] | EC50 (EpiSC-derived OPCs) | EC50 [2] | Compound
1170 nM | 980 nM | 333 nM | CC(C)n1nc(-c2cccc(C(F)(F)F)n2)nc1[C@H]1[C@@H]2C[C@@H](N3CCOC[C@H]3C)C[C@@H]21 [Compound 72, (R)-4-((1R,3s,5S,6R)-6-(1-Isopropyl-3-(6-(trifluoromethyl)pyridin-2-yl)-1H-1,2,4-triazol-5-yl)bicyclo[3.1.0]hexan-3-yl)-3-methylmorpholine]
12.5 nM | 75 nM | 13.8 nM | CCn1nc(-c2cncc(C(F)(F)F)c2)cc1[C@H]1[C@@H]2C[C@@H](N3CCCOCC3)C[C@@H]21 [Compound 53, 4-((1R,3s,5S,6r)-6-(1-Ethyl-3-(5-(trifluoromethyl)pyridin-3-yl)-1H-pyrazol-5-yl)bicyclo[3.1.0]hexan-3-yl)-1,4-oxazepane]
8.64 nM | 1.82 nM | 1.71 nM | CC(C)n1nc(-c2cccc(C(F)(F)F)c2)cc1[C@H]1[C@@H]2C[C@H](N3CCCOCC3)C[C@@H]21 [Compound 176*, 4-((1R,3s,5S,6r)-6-(1-isopropyl-3-(3-(trifluoromethyl)phenyl)-1H-pyrazol-5-yl)bicyclo[3.1.0]hexan-3-yl)-1,4-oxazepane]
111 nM | 325 nM | 78 nM | CC(C)n1nc(-c2cncc(C(F)(F)F)c2)cc1[C@H]1[C@@H]2C[C@@H](N3CCO[C@H](C)C3)C[C@@H]21 (single isomer, unassigned) [40*]
47.6 nM | 71 nM | 9.32 nM | CC(C)n1nc(-c2cncc(C(F)(F)F)c2)cc1[C@H]1[C@@H]2C[C@H](N3C[C@@H]4C[C@H]3CO4)C[C@@H]21 (single isomer, unassigned) [38*]
14.7 nM | 25.7 nM | 8 nM | CC(C)n1nc(-c2ccc(C(F)(F)F)c(F)c2)nc1[C@@H]1CC[C@@H](N2CCOCC2)C1 (single isomer, unassigned) [Compound 114*]
325 nM | 48 nM | 5.7 nM | CC(C)n1nc(-c2cnc(C(F)(F)F)nc2)nc1[C@H]1CC[C@@H](N2CCO[C@H](C)C2)C1 [Compound 144, (R)-4-((1R,3S)-3-(1-isopropyl-3-(2-(trifluoromethyl)pyrimidin-5-yl)-1H-1,2,4-triazol-5-yl)cyclopentyl)-2-methylmorpholine]
11.7 nM | 30.8 nM | 4.86 nM | CC(C)n1nc(-c2cncc(C(F)(F)F)n2)cc1[C@H]1[C@@H]2C[C@@H](N3CCOCC3)C[C@@H]21 [Compound 107, 4-((1R,3s,5S,6r)-6-(1-Isopropyl-3-(6-(trifluoromethyl)pyrazin-2-yl)-1H-pyrazol-5-yl)bicyclo[3.1.0]hexan-3-yl)morpholine]
41 nM | 108 nM | 30.5 nM | CC(C)n1nc([C@H]2CC[C@@H](C(F)(F)F)CC2)nc1[C@H]1[C@@H]2C[C@H](N3CCOC[C@H]3C)C[C@@H]21 (single isomer, unassigned) [Compound 166*]
358 nM | 82.5 nM | 77 nM | CC(C)n1nc(-c2cncc(C(F)(F)F)c2)nc1[C@H]1[C@@H]2C[C@H](N3CCCOCC3)C[C@@H]21 [Compound 51, 4-((1R,3r,5S,6r)-6-(1-Isopropyl-3-(5-(trifluoromethyl)pyridin-3-yl)-1H-1,2,4-triazol-5-yl)bicyclo[3.1.0]hexan-3-yl)-1,4-oxazepane]
22.6 nM | 85 nM | 11.7 nM | CC(C)n1nc(-c2cccc(C(F)(F)F)n2)nc1[C@@H]1CCC(N2CCOCC2)C1 (stereo in doubt) [26*, 4-((1S,3R)-3-(1-isopropyl-3-(6-(trifluoromethyl)pyridin-2-yl)-1H-1,2,4-triazol-5-yl)cyclopentyl)morpholine]
34.8 nM | 0.907 nM | 1.42 nM | CC(C)n1nc(-c2cncc(C(F)(F)F)c2)cc1[C@H]1[C@@H]2C[C@H](N3CCOC[C@H]3C)C[C@@H]21 (single isomer, unassigned) [46*]
119 nM | 417 nM | 146 nM | CC(C)n1nc(-c2cncc(OC(F)F)c2)nc1[C@H]1[C@@H]2C[C@@H](N3CCCOCC3)C[C@@H]21 [Compound 68, 4-((1R,3s,5S,6r)-6-(3-(5-(Difluoromethoxy)pyridin-3-yl)-1-isopropyl-1H-1,2,4-triazol-5-yl)bicyclo[3.1.0]hexan-3-yl)-1,4-oxazepane]
20.6 nM | 431 nM | 56.7 nM | CC(C)n1nc(-c2ccc(OC(F)(F)F)cc2)cc1[C@H]1[C@@H]2C[C@@H](N3CCCOCC3)C[C@@H]21 [Compound 186*, 4-((1R,3s,5S,6r)-6-(1-isopropyl-3-(4-(trifluoromethoxy)phenyl)-1H-pyrazol-5-yl)bicyclo[3.1.0]hexan-3-yl)-1,4-oxazepane]
771 nM | 523 nM | 255 nM | CC(C)n1nc(-c2cncc(C(F)(F)F)c2)cc1[C@H]1[C@@H]2C[C@@H](N3CCO[C@@H](C)C3)C[C@@H]21 (single isomer, unassigned) [39*]
19.2 nM | 36.2 nM | 5.52 nM | CC(C)n1nc(-c2cncc(C(F)(F)F)c2)cc1[C@H]1CC[C@@H](N2CCOCC2)C1 (single isomer, unassigned) [60*]
10.6 nM | 13.1 nM | 8.6 nM | CC(C)n1nc(-c2ccc(F)cc2)cc1[C@H]1[C@@H]2C[C@H](N3CCCOCC3)C[C@@H]21 [Compound 183*, 4-((1R,3r,5S,6r)-6-(3-(4-Fluorophenyl)-1-isopropyl-1H-pyrazol-5-yl)bicyclo[3.1.0]hexan-3-yl)-1,4-oxazepane]
10.1 nM | 12.4 nM | 7 nM | CC(C)n1nc(-c2ccc(C(F)(F)F)cc2)cc1[C@H]1[C@@H]2C[C@H](N3CCCOCC3)C[C@@H]21 [Compound 181*, 4-((1R,3r,5S,6r)-6-(1-Isopropyl-3-(4-(trifluoromethyl)phenyl)-1H-pyrazol-5-yl)bicyclo[3.1.0]hexan-3-yl)-1,4-oxazepane]
113 nM | 73.4 nM | 21.4 nM | FC(F)(F)c1cccc(-c2nc([C@H]3CC[C@H](N4CCCOCC4)C3)n(C3CC3)n2)n1 (single isomer, unassigned) [9*]
9.87 nM | 10.1 nM | 5.46 nM | Cc1ccccc1-c1cc([C@H]2[C@@H]3C[C@H](N4CCCOCC4)C[C@@H]32)n(C(C)C)n1 (single isomer, unassigned) [Compound 197*]
53 nM | 75 nM | 42 nM | CC(C)n1nc(-c2cccc(C(F)(F)F)n2)cc1[C@H]1[C@@H]2C[C@@H](N3CCCOCC3)C[C@@H]21 [Compound 49, 4-((1R,3s,5S,6r)-6-(1-Isopropyl-3-(6-(trifluoromethyl)pyridin-2-yl)-1H-pyrazol-5-yl)bicyclo[3.1.0]hexan-3-yl)-1,4-oxazepane]
27.1 nM | 51.7 nM | 7.71 nM | CC(C)n1nc(-c2cccc(C(F)(F)F)c2)nc1[C@@H]1CC[C@@H](N2CCOCC2)C1 (single isomer, unassigned) [21*]
34.5 nM | 354 nM | 52 nM | CC(C)n1nc(-c2cncc(C(F)(F)F)c2)cc1[C@H]1[C@@H]2C[C@H](N3CCOC(C)(C)C3)C[C@@H]21 [Compound 34, 4-((1R,3r,5S,6r)-6-(1-isopropyl-3-(5-(trifluoromethyl)pyridin-3-yl)-1H-pyrazol-5-yl)bicyclo[3.1.0]hexan-3-yl)-2,2-dimethylmorpholine]
